# Assays:
# [1] = Appetite in Htr1aPomc-/- mice treated with LY426965; format: in vivo
# Procedure: These two hypotheses were tested through the use of a small molecule that selectively antagonizes signaling through Htr1a receptor. Other Htr1a and 2b receptor antagonists for use in the present invention are discussed below.
# Animals were housed under 12 h light/12 h dark conditions with ad libitum access to food and water, and were used after a minimum of 4 days of acclimatization to the housing conditions. Control, Htr1aPomc−/−, Htr2bPomc−/−, Htr1a; 2 bPomc−/−, CrebPomc−/− mice were separated into individual cages one day prior to the experiment. Food intake and energy expenditure was measured every 12 hours for 36 hours essentially as described previously (6, 17).
# [2] = Acute dose response of LY426965 on food intake in WT mice; format: in vivo
# Procedure: (§1) This decrease in food intake reached 77% of control values when using 20 mg/kg of the compound (FIG. 19 C). […] Thus LY426965 decreases appetite in WT mice by inhibiting serotonin signaling through the Htr1a receptor that is located in the hypothalamus.
# (§2) One or 3-month old C57B1/6J inbred female mice were used in these experiments. Two different experimental regimens were utilized to assess the effect of LY426965 on appetite in WT and ob/ob mice.
# Animals were separated into individual cages one day prior to the experiment. Compound LY426965 was dissolved in water and fed orally (Gavage) according to the weight of the mouse at doses 1, 5, 10 and 20 mg/kg BW two hours prior to the commencement of the dark cycle. Control animals received the same volume of vehicle. Food intake was measured every 12 hours for 36 hours after giving one dose of the antagonist.
# [3] = Mass spectrometric analysis of mice hypothalami after administration of the compound; format: in vivo
# Procedure: as §1
# [4] = Food intake in leptin-deficient ob/ob mice after a single dose of LY426965; format: in vivo; details: 4-week old ob/ob mice, single dose 0.2 mg/20 g of body weight, 12, 24 and 36 h later
# Procedure: (§3) To determine whether LY426965 could decrease appetite in leptin-deficient ob/ob mice, we administered 4-week old ob/ob mice with a single dose of LY426965 (0.2 mg/20 g of body weight) and measured food intake 12, 24 and 36 h later. […] Experiments were conducted to determine whether LY426965 could rescue, at least in part, the obesity of ob/ob mice if administered chronically, once mice had already developed an obesity phenotype. 4-week old ob/ob mice were administered daily with 20 mg/kg body weight dose of LY426965 for 4 additional weeks.
# as §2
# [5] = Chronic treatment of ob/ob mice with LY426965; format: in vivo; details: 20 mg/kg body weight daily for 4 weeks from 4 weeks of age
# Procedure: as §3
# In this experiment one-month old WT and ob/ob mice (housed individually in metabolic cages) were divided into different groups and injected with the LY426965 dissolved in water and diluted in saline (final concentration 0.9%) once a day, 2 hours prior to the commencement of the dark cycle, for 4 weeks. Body weight was recorded everyday and dose of the drug and vehicle adjusted accordingly. At the end of the experiment all mice were subjected to measurement of food intake every 12 hours over a period of 36 hours.
# Htr1a receptor = molecular target: T1, Htr1a receptor (Homo sapiens, UniProt P08908); details: cited from earlier work
# T1 sequence (P08908 1-422): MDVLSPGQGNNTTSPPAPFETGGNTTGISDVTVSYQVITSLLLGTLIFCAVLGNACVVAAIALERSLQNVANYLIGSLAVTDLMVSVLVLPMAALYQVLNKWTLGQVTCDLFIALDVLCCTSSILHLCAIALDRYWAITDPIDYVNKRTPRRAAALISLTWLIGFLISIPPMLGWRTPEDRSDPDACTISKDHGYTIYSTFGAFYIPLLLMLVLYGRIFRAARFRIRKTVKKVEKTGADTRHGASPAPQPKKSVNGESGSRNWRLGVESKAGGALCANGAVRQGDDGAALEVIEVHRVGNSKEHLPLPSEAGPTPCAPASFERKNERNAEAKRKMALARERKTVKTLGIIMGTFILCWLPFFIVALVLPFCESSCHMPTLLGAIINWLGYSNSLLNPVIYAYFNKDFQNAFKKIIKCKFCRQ
compound,measurement,setting,value
COc1ccccc1N1CCN(CC[C@](C)(C(=O)C2CCCCC2)c2ccccc2)CC1 [LY426965],appetite,[1],not decreased
same,decrease in food intake,"[2]; 20 mg/kg, WT mice",77 % of control values
same,appetite (dose response),[2]; 1 to 20 mg/kg of body weight fed to 12 week-old C57B16/J mice,dose-dependent decrease in appetite
same,compound reaching the hypothalamus,[3],could reach the hypothalamus
same,food intake lower than in vehicle-treated mice,[4],20-25%
same,obesity phenotype,[5],significantly decreased the obesity phenotype
same,selectivity over other serotonin and non-serotonin receptor subtypes,Htr1a receptor,≥ 20 fold
same,Ki,Htr1a receptor; read-out: affinity for the Htr1a receptor (Ki),4.66 nM
